Molecular target: PBPA (penicillin-binding protein A) (Mycobacterium tuberculosis, UniProt P9WKD1)
Sequence (P9WKD1 34-491): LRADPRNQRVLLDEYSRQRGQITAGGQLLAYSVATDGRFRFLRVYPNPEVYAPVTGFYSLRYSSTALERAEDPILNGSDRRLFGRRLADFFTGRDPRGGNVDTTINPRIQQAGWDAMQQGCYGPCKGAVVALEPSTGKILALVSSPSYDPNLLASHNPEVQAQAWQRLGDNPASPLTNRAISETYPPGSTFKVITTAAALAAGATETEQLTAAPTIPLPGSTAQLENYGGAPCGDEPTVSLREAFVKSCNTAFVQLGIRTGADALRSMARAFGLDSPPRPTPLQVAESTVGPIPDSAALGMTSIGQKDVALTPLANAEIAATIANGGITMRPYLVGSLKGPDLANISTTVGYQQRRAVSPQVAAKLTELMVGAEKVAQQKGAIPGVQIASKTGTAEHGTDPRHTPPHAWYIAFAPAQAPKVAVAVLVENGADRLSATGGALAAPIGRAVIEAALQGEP

C[C@@H](O)[C@H]1C(=O)N2C(C(=O)O)=C(SCCN=CN)C[C@H]12 [Imipenem]
Method / Intrinsic fluorescence: 3,980 ± 180 M^-1 sec^-1

— article PMC3327805 (Journal of Molecular Biology, 2012)
